The values that follow come from ChEMBL document CHEMBL1149923, “Synthesis and activity of enantiopure (S) (m-nitrobenzoyl) alanine, potent kynurenine-3-hydroxylase inhibitor” (Bioorg Med Chem Lett, 1995).

The target in one assay is T1, Kynureninase (Rattus norvegicus, UniProt P70712).
T1 sequence (P70712 whole entry): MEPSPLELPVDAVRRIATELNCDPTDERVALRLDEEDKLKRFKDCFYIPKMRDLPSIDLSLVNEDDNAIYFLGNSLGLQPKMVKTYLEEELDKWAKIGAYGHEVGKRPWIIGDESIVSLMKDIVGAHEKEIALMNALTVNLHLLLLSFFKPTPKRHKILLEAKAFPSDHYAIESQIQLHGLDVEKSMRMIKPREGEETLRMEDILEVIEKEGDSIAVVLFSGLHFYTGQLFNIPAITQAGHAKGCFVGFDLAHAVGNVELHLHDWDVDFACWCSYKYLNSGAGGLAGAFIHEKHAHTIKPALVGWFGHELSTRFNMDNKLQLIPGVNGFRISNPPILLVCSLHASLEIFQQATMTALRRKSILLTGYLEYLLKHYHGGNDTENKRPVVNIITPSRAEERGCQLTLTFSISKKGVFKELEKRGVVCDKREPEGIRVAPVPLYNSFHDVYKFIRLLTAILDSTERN
In words: Tested for inhibitory activity against kynureninase from rat liver.

Assay [1] has as its target Kynurenine 3-monooxygenase (Rattus norvegicus) (UniProt O88867). The settings on record: 100 uM.
Description: Tested for inhibitory activity against kynurenine 3-hydroxylase at 100 uM concentration
Assay [2] concerns the target Kynurenine 3-monooxygenase (Rattus norvegicus, UniProt O88867). In words: Tested for inhibitory activity against kynurenine 3-hydroxylase.

Chain of Kynurenine 3-monooxygenase (Rattus norvegicus) (O88867 whole entry, looked up): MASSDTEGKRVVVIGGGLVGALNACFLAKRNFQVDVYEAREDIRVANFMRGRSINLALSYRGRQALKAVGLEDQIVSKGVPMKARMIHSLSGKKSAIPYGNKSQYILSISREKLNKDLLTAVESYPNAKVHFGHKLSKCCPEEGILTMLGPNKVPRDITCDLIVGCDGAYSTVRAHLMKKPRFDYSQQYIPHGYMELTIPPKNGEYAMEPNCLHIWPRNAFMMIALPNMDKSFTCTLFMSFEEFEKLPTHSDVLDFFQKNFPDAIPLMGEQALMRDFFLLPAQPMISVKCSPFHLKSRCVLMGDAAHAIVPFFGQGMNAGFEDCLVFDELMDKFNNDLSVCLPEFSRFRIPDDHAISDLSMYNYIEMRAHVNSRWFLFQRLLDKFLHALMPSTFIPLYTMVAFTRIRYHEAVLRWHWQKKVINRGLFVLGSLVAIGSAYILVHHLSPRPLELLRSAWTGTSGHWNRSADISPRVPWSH
Chain of Kynurenine 3-monooxygenase (O88867 whole entry): as the sequence (O88867 whole entry, looked up) above

Turning to `N[C@H](CC(=O)c1cccc([N+](=O)[O-])c1)C(=O)O`, at Kynureninase, it took 100 µM to reach half-maximal inhibition (IC50). In addition, in assay [1], the inhibition is 60%.
For the compound `N[C@@H](CC(=O)c1cccc([N+](=O)[O-])c1)C(=O)O`, the IC50 against Kynureninase was 60 µM; in assay [2] it was 500 nM.
